From patent publication US7034028B2, “Treatment of inflammatory disorders” (Arakis Ltd., priority 2000, dated 2006)
Like-named read-outs stand apart in the source and are kept apart here.

How the values were obtained:
bovine nasal cartilage = assay: Ex vivo IL-2-stimulated bovine nasal cartilage destruction model; assay type: cell-based; parameters: Inhibition of IL-2-stimulated bovine nasal cartilage destruction: unit not given here; conditions: for inhibition at 1 µM / inhibition at 10 µM / inhibition at 100 µM: Bos taurus, read-out: Inhibition of IL-2-stimulated bovine nasal cartilage destruction
IL-6 = assay: Cytokine inhibition profile: IL-6; assay type: cell-based; conditions: read-out: Inhibition Profile (IC50) IL-6
IL-1 = assay: Cytokine inhibition profile: IL-1; assay type: cell-based; conditions: read-out: Inhibition Profile (IC50) IL-1
Interleukin-8 (IL-8) = assay: Cytokine inhibition profile: IL-8; assay type: cell-based
IFN gamma = assay: Cytokine inhibition profile: IFN gamma; assay type: cell-based; conditions: read-out: Inhibition Profile (IC50) IFN gamma
TNF = assay: Cytokine inhibition profile: TNF; assay type: cell-based; conditions: read-out: Inhibition Profile (IC50) TNF
IL-2 = assay: Cytokine inhibition profile: IL-2; assay type: cell-based; conditions: read-out: Inhibition Profile (IC50) IL-2
T-cell proliferation = assay: T-cell (lymphocyte) proliferation inhibition; assay type: cell-based, human
[1] = read-out: Inhibition Profile (IC50) T-cell proliferation

Row | Inhibition Profile (IC50) IL-8 (Interleukin-8 (IL-8)) | SMILES | Inhibition of IL-2-stimulated bovine nasal cartilage destruction (bovine nasal cartilage; 10 μM) | IC50 (IL-6) | IC50 (IL-1) | IC50 (Interleukin-8 (IL-8)) | IC50 (IFN gamma) | IC50 (TNF) | IC50 (IL-2) | IC50 (T-cell proliferation; [1]) | Inhibition of IL-2-stimulated bovine nasal cartilage destruction (bovine nasal cartilage; 1 μM) | Inhibition of IL-2-stimulated bovine nasal cartilage destruction (bovine nasal cartilage; 100 μM) | also measured
1 |  | OC(c1cc(C(F)(F)F)nc2c(C(F)(F)F)cccc12)C1CCCCN1 (racemic) [(+/−) Mefloquine, mefloquine] | 20 |  |  |  |  |  |  |  |  |  | 
2 |  | OC(c1cc(C(F)(F)F)nc2c(C(F)(F)F)cccc12)C1CCCCN1 (single isomer, unassigned; (-)) [(−)Mefloquine] | 45 | 43 µM | 79 µM | 63 µM | 18 µM | 18 µM | 17 µM | 10 µM | 37 | 82 | 
3 |  | O[C@H](c1cc(C(F)(F)F)nc2c(C(F)(F)F)cccc12)[C@@H]1CCCCN1 [(+)Mefloquine, (+)-Erythro-mefloquine] | 44 | 53 µM | 68 µM | 41 µM | 17 µM | 24 µM | 17 µM | 11 µM | 32 | 71 | Suppression of human lymphocyte proliferation, in words (T-cell proliferation): suppresses
4 | Inactive | CCN(CC)CCCC(C)Nc1ccnc2cc(Cl)ccc12 (stereo not shown) [Chloroquine, chloroquine] |  | 81 µM | 6.3 µM |  | 63 µM | 21 µM | 66 µM |  |  |  | IC50 (T-cell proliferation; Homo sapiens, T-cell, read-out: Inhibition Profile (IC50) T-cell proliferation): 13 µM; inhibition at 1 µM (bovine nasal cartilage): 3%; inhibition at 10 µM (bovine nasal cartilage): 6%; inhibition at 100 µM (bovine nasal cartilage): 35%
5 | Inactive | CCN(CCO)CCCC(C)Nc1ccnc2cc(Cl)ccc12 (stereo not shown) [Hydroxychloroquine, hydroxychloroquine] |  | 90 µM | 21 µM |  | 94 µM | 32.2 µM | 94 µM |  |  |  | Activity against Interleukin-8 (IL-8), in words (Interleukin-8 (IL-8)): inactive; IC50 (T-cell proliferation; Homo sapiens, T-cell; read-out: Inhibition Profile (IC50) T-cell proliferation): 16 µM; inhibition at 1 µM (bovine nasal cartilage; 1 μM): 4%; inhibition at 10 µM (bovine nasal cartilage; 10 μM): 3%; inhibition at 100 µM (bovine nasal cartilage; 100 μM): 36%
